Data reported in PMC4718399 (Nature chemical biology, 2015).

Key:
β2R [1] = target: T1, β2R (Homo sapiens, UniProt P07550, N187E, form not given); type: biochemical; conditions: 200μM solubilized lipid; for modulation of β2R activation by solubilized phospholipid: 200μM isoproterenol
β2R [2] = target: T1, β2R; test: Bimane fluorescence spectroscopy; type: biochemical; conditions: for basal (agonist-free) bimane emission λmax: bimane-labelled receptor reconstituted in rHDL of the given lipid, no ligand; for rate and magnitude of change in λmax upon agonist: rHDL of the given lipid, 200 μM isoproterenol, relative to basal fluorescence in detergent
β2R [3] = target: T1, β2R; test: Mass spectrometry quantification of lipids bound to purified β2R; conditions: β2R purified from Sf9 cells with 0.5% DDM

| Molecule | modulation of β2R activation by solubilized phospholipid (β2R [1]) | basal (agonist-free) bimane emission λmax (β2R [2]) | rate and magnitude of change in λmax upon agonist (β2R [2]) | share of all β2R-bound lipids (β2R [3]) | basal λmax shift (β2R [1]; 1μM β2R, 500μM DDM, 600μM cholate) [nm] |
| --- | --- | --- | --- | --- | --- |
| CCCCCCCC/C=C\CCCCCCCC(=O)OC[C@H](COP(=O)([O-])OCC[N+](C)(C)C)OC(=O)CCCCCCC/C=C\CCCCCCCC [DOPC] | little or no effect | about 450 nm | intermediate | – | – |
| CCCCCCCC/C=C\CCCCCCCC(=O)OC[C@H](COP(=O)(O)OC[C@H](N)C(=O)O)OC(=O)CCCCCCC/C=C\CCCCCCCC [DOPS] | positive effect albeit not as strong | – | – | – | – |
| phosphatidylglycerol [PG] | – | – | – | over 16% | – |
| CCCCCCCC/C=C\CCCCCCCC(=O)OC[C@H](COP(=O)(O)OCCN)OC(=O)CCCCCCC/C=C\CCCCCCCC [DOPE] | little or no effect | about 450 nm | smallest change and slowest rate of change | – | – |
| CCCCCCCC/C=C\CCCCCCCC(=O)OC[C@H](COP(=O)(O)OCC(O)CO)OC(=O)CCCCCCC/C=C\CCCCCCCC (stereo partly shown) [DOPG] | strongest positive modulator | about 455 nm | fastest rate of change and the largest shift in λmax | over 7% | 4 |
